Numbering of substitutions follows the chain as printed. “And” between values parts separate entries of the source, which are not always exact repeats. Equal values may be shown once.

The target in one assay is T1, FKBP51 variant G64T (Homo sapiens, UniProt Q13451, G64T).
T1 construct: made in house; host or cells: E. coli BL21 (DE3)
T1 sequence (Q13451 1-140 G64T): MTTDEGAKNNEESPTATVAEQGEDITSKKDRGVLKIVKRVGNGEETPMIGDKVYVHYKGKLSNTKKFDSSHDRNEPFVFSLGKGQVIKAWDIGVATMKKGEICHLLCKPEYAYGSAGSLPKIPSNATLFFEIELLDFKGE
The experiment in a line: Fluorescence polarization tracer binding, FKBP51 G64T. The settings on record: for Fold change in Kd improvement: FKBP51 G64T compared to WT; for Kd: FKBP51 G64T, 0.5 nM SAFit-FL, 5 nM Mcyc-TA or 1 nM FK [431]-TA, 30 min room temperature. The text has this: (§1) All ligands and tracers used for fluorescence polarization assays had purities of more than 95%. The following ligands and tracers were used for fluorescence polarization and FACS screening experiments: •SAFit-FL tracer (1): Fluorescein conjugated analog of the iFit ligand class. •Mcyc-TA tracer (2): TAMRA conjugated macrocyclic ligand (5). •FK [431]-TA tracer (3): TAMRA conjugated FK [431] ligand (6). •SAFit1 ligand (4): analog of the iFit ligand class. •macrocyclic ligand (5):macrocyclic analog of the SAFit class ligands. •FK [431] ligand (6):bicyclic analog of the immunosuppressive drug FK506
(§2) The binding of the generated FKBP51 variants to different conformation-sensitive FKBP ligands was investigated by fluorescence polarization assays. Therefore, a serial dilution of the respective FKBP51 variant in assay buffer (20 mM HEPES pH 8.0, 150 mM NaCl, 0.015% Triton X-100) was placed in a 384-well assay plate and a defined amount of the respective fluorescent tracer (0.5 nM of the SAFit based tracer SAFit-FL (1), 5 nM of the macrocyclic tracer Mcyc-TA 2) or 1 nM of the FK [431]-TA 3) in assay buffer was added to the protein buffer mixture. After incubation for 30 min at room temperature, the fluorescence polarization was measured with a plate reader. The obtained results for each 3 independent experiments were normalized with respect to the maximal binding signal and fitted to a one-site binding model as described by [Wang et al., 1992] yielding the respective binding constants. tracer bound=100/Lt×0.5×(Rt+Lt+KD−(Rt+Lt+KD)^2−4×LtRt) With L t , total concentration of the tracer, R t , total concentration of the receptor and K D binding constant of the complex RL.

A further assay addresses T2, FKBP51 variant D68Y (Homo sapiens, UniProt Q13451, D68Y).
T2 construct: made in house; host or cells: E. coli BL21 (DE3)
T2 sequence (Q13451 1-140 D68Y): T1 sequence (Q13451 1-140 G64T) with T64G, D68Y
The experiment in a line: Fluorescence polarization tracer binding, FKBP51 D68Y. Conditions: for Fold change in Kd improvement: FKBP51 D68Y compared to WT; for Kd: FKBP51 D68Y, 0.5 nM SAFit-FL, 5 nM Mcyc-TA or 1 nM FK [431]-TA, 30 min room temperature.
Description: as §1, §2

For another assay, the target named is T3, FKBP51 variant G64K (Homo sapiens, UniProt Q13451, G64K).
T3 construct: made in house; host or cells: E. coli BL21 (DE3)
T3 sequence (Q13451 1-140 G64K): T1 sequence (Q13451 1-140 G64T) with T64K
The experiment in a line: Fluorescence polarization tracer binding, FKBP51 G64K. Conditions: for Fold change in Kd improvement: FKBP51 G64K compared to WT; for Kd: FKBP51 G64K, 0.5 nM SAFit-FL, 5 nM Mcyc-TA or 1 nM FK [431]-TA, 30 min room temperature.
Description: as §1, §2

The target of a further assay is T4, FKBP51 variant F67R (Homo sapiens, UniProt Q13451, F67R).
T4 construct: made in house; host or cells: E. coli BL21 (DE3)
T4 sequence (Q13451 1-140 F67R): T1 sequence (Q13451 1-140 G64T) with T64G, F67R
The experiment in a line: Fluorescence polarization tracer binding, FKBP51 F67R. The settings on record: for Fold change in Kd improvement: FKBP51 F67R compared to WT; for Kd: FKBP51 F67R, 0.5 nM SAFit-FL, 5 nM Mcyc-TA or 1 nM FK [431]-TA, 30 min room temperature.
Description: as §1, §2

The target of the next assay is T5, FKBP51 variant G64R (Homo sapiens, UniProt Q13451, G64R).
T5 construct: made in house; host or cells: E. coli BL21 (DE3)
T5 sequence (Q13451 1-140 G64R): T1 sequence (Q13451 1-140 G64T) with T64R
The experiment in a line: Fluorescence polarization tracer binding, FKBP51 G64R. The settings on record: for Fold change in Kd improvement: FKBP51 G64R compared to WT; for Kd: FKBP51 G64R, 0.5 nM SAFit-FL, 5 nM Mcyc-TA or 1 nM FK [431]-TA, 30 min room temperature.
Description: as §1, §2

The target in the next assay is T6, FKBP51 variant D68N (Homo sapiens, UniProt Q13451, D68N).
T6 construct: made in house; host or cells: E. coli BL21 (DE3)
T6 sequence (Q13451 1-140 D68N): T1 sequence (Q13451 1-140 G64T) with T64G, D68N
The experiment in a line: Fluorescence polarization tracer binding, FKBP51 D68N. Conditions: for Fold change in Kd improvement: FKBP51 D68N compared to WT; for Kd: FKBP51 D68N, 0.5 nM SAFit-FL, 5 nM Mcyc-TA or 1 nM FK [431]-TA, 30 min room temperature.
Description: as §1, §2

In a further assay the target is T7, FKBP51 variant S69Y (Homo sapiens, UniProt Q13451, S69Y).
T7 construct: made in house; host or cells: E. coli BL21 (DE3)
T7 sequence (Q13451 1-140 S69Y): T1 sequence (Q13451 1-140 G64T) with T64G, S69Y
The experiment in a line: Fluorescence polarization tracer binding, FKBP51 S69Y. The settings on record: for Fold change in Kd improvement: FKBP51 S69Y compared to WT; for Kd: FKBP51 S69Y, 0.5 nM SAFit-FL, 5 nM Mcyc-TA or 1 nM FK [431]-TA, 30 min room temperature.
Description: as §1, §2

For the next assay, the target named is T8, FKBP51 variant G64S (Homo sapiens, UniProt Q13451, G64S).
T8 construct: made in house; host or cells: E. coli BL21 (DE3)
T8 sequence (Q13451 1-140 G64S): T1 sequence (Q13451 1-140 G64T) with T64S
The experiment in a line: Fluorescence polarization tracer binding, FKBP51 G64S. The settings on record: for Kd: FKBP51 G64S, 0.5 nM SAFit-FL, 5 nM Mcyc-TA or 1 nM FK [431]-TA, 30 min room temperature.
Description: as §1, §2

Take `CN(C)c1ccc2c(-c3cc(C(=O)NCCn4cc([C@H]5CN(Cc6ccccn6)C(=O)[C@@H]6CCC[C@H]5N6S(=O)(=O)c5cc(Cl)cc(Cl)c5)nn4)ccc3C(=O)O)c3ccc(=[N+](C)C)cc-3oc2c1` [FK [431]-TA]: the “Fold change in Kd improvement” value was 0.084 fold on FKBP51 variant G64T; 0.134 fold on FKBP51 variant D68Y; “no improvement” on FKBP51 variant D68Y (listed as 3); 0.283 fold on FKBP51 variant G64K; 0.016 fold on FKBP51 variant F67R; 0.159 fold on FKBP51 variant G64R. The “Fold change in Kd improvement” value is reported as 0.035 fold at FKBP51 variant D68N and 0.077 fold on FKBP51 variant S69Y. For the same compound, the Kd at FKBP51 variant G64T is 61 ± 2 nM; on FKBP51 variant D68Y, 38 ± 2 nM; on FKBP51 variant G64K it was 18 ± 1 nM; on FKBP51 variant F67R it was 312 ± 14 nM; at FKBP51 variant G64R, 32 ± 2 nM; at FKBP51 variant D68N, 146 ± 6 nM. In addition, the Kd at FKBP51 variant S69Y was 66 ± 2 nM; at FKBP51 variant G64S, 11 ± 1 nM.
Consider `COc1ccc(CC[C@H]2OC(=O)[C@@H]3CCCCN3C(=O)[C@@H](C3CCCCC3)NC(=O)C(C)(C)NC(=O)COc3cc(OCCNC(=O)c4ccc(C(=O)O)c(-c5c6ccc(=[N+](C)C)cc-6oc6cc(N(C)C)ccc56)c4)cc2c3)cc1OC` [Mcyc-TA], for which the “Fold change in Kd improvement” value at FKBP51 variant G64T was 1.41 fold; at FKBP51 variant D68Y, 34 fold and 34.29 fold; on FKBP51 variant G64K, 6.86 fold; on FKBP51 variant F67R, 1.00 fold; at FKBP51 variant G64R, 2.42 fold; on FKBP51 variant D68N, 4.00 fold. The “Fold change in Kd improvement” value is 1.41 fold at FKBP51 variant S69Y; 34 fold and 34.29 fold on FKBP51 variant G64S (FKBP51 G64S compared to WT). Besides, the Kd at FKBP51 variant G64T is 17 ± 1 nM; at FKBP51 variant D68Y, 0.7 ± 0.1 nM; at FKBP51 variant G64K it was 3.5 ± 0.5 nM; at FKBP51 variant F67R it was 24 ± 3 nM; on FKBP51 variant G64R it was 9.9 ± 1 nM; on FKBP51 variant D68N, 6 ± 1 nM. The values for the Kd at FKBP51 variant S69Y and on FKBP51 variant G64S were 17 ± 1 nM and 0.7 ± 0.2 nM, respectively.

Source of the values: article PMC9676650, “Binding pocket stabilization by high-throughput screening of yeast display libraries” (Frontiers in Molecular Biosciences, 2022).
